Assay results published in patent publication US12478625B2, “Pharmaceutical compositions and crushable tablets including amorphous solid dispersions of dasatinib and uses” (Handa Therapeutics, LLC, priority 2021, dated 2025).

Columns and labels:
Settings in all cases: promptly after spray drying and vacuum drying
[1] = Amorphicity / crystallinity by XRD on stability; type: physicochemical
Protocol: Diffraction patterns were obtained using a Rigaku MiniFlex 600.
The percent of crystallinity was calculated as follows: % crystallinity=area of crystalline peaks/(area of crystalline peaks+amorphous peaks)
(§1) ASDs stored at 25° C./60% RH and 25° C./protected were additionally evaluated at 9 months and 12 months.
Amorphicity and glass transition temperature were assessed using the methodology described in Example 1.

[2] = Water content by coulometric Karl Fischer titration; type: physicochemical
[3] = Assay / total impurities by HPLC on stability; type: physicochemical
Protocol: as §1
LOD was evaluated using the Computrac Max 4000, in which approximately 0.5 g of material was spread evenly across the sample pan. Assay/impurities of the ASDs were assessed using the instrument parameters, measurement conditions, and gradient profile specified in Table 11.

[4] = Glass transition temperature by modulated DSC

XRD crystallinity [1]: exhibited crystalline character
Water content [2]: 0.81%
assay value [3]: 97.4%
glass transition temperature (Tg) [4]: 125.61 °C
Compound: Cc1nc(Nc2ncc(C(=O)Nc3c(C)cccc3Cl)s2)cc(N2CCN(CCO)CC2)n1 [spray-dried material of 100% dasatinib]
